Earlier results in patent publication US20240099974A1, “TREATMENT AGENT” (FUJIFILM Corporation, priority 2021, published 2024).

Conditions: iv; Mould et al., 2002, Ait-Oudhia, Mager and Straubinger 2014

clearance in a case where topotecan is intravenously administered: 18.6 L/h
Structure (SMILES): CC[C@@]1(O)C(=O)OCc2c1cc1n(c2=O)Cc2cc3c(CN(C)C)c(O)ccc3nc2-1 [topotecan]
